Patent US5843449A, “Proteins and novel peptides derived from autoantigen for use in immunotherapy of autoimmune diseases” (Akzo Nobel N.V., priority 1996, dated 1998)
Read-outs that look alike come from different tables or passages of the source. Residues, ends and D or L forms follow the SMILES beside them.

Experiments:
DR4Dw14 HLA-DR molecules = assay: HLA-DR peptide binding assay (competition with biotinylated marker peptide), DR4Dw14; design: species or system human; conditions: pH = 5, 50 nM biotin-spacer-IHA(307-319)F marker peptide
[1] = target: T1, DR4Dw4 (DRB1*0401) HLA-DR molecules (Homo sapiens, UniProt P01903+P01911, A100K/A169T/F76Y/I96L/K127E/L162R/M171V/N62H/P40V/Q125Y/R42H/S133A/S149N/S66Y/V115G/V209L/W38E); assay: HLA-DR peptide binding assay (competition with biotinylated marker peptide), DR4Dw4; conditions: pH = 5, 50 nM biotin-spacer-IHA(307-319)F marker peptide
T1 construct: endogenous in cells; host or cells: BSM, EBV-transformed B-cell line

Question: For `CC(C)C[C@H](NC(=O)[C@H](CCCCN)NC(=O)[C@H](CC(C)C)NC(=O)[C@@H](NC(=O)[C@H](CC(N)=O)NC(=O)[C@H](CCC(N)=O)NC(=O)[C@H](CCCCN)NC(=O)[C@@H](NC(=O)[C@H](Cc1ccccc1)NC(=O)[C@H](CCCCN)NC(=O)[C@@H]1CCCN1)C(C)C)[C@@H](C)O)C(=O)N[C@@H](C)C(=O)N[C@H](C(=O)O)[C@@H](C)O` [IHA(307-319)F, reference compound] (H-PKFVKQNTLKLAT-OH), which IC50 (DR4Dw14 HLA-DR molecules; DOT Blot, densitometer, read-out: ^R IC50, DR4Dw14, DOT Blot) is on record?
Answer: 530 nM

Question: What about the IC50 (DR4Dw14 HLA-DR molecules; SDS-PAGE, visual inspection, read-out: ^R IC50, DR4Dw14, SDS-PAGE) of the same molecule?
Answer: 300 nM

Question: What about the IC50 ([1]; DOT Blot, densitometer, read-out: ^R IC50, DR4Dw4, DOT Blot) of the same molecule?
Answer: 550 nM

Question: And the IC50 ([1]; SDS-PAGE, visual inspection, read-out: ^R IC50, DR4Dw4, SDS-PAGE)?
Answer: 300 nM
